From patent publication US20260199497A1, “GLUCOCORTICOID RECEPTOR AGONIST AND CONJUGATE THEREOF” (priority 2023, published 2026)

Biological target: T1, glucocorticoid receptor (Homo sapiens, UniProt P04150)
T1 sequence (P04150 524-777 limits assumed): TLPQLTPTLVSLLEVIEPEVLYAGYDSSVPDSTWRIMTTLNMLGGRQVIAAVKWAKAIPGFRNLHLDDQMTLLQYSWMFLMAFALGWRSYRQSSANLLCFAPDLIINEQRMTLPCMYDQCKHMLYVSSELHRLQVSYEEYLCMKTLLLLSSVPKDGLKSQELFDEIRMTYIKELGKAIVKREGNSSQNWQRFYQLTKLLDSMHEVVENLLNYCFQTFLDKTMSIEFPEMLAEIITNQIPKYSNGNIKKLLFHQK
Experiment: GRE reporter gene test (Experiment Example 2), HEK293T cells transfected with pGL4.35 and p-Bind GR Vector
Assay type: cell-based
Settings: for EC50: GRE reporter gene, HEK293T cells, 18-20 h incubation; for Emax: HEK-293T; for maximum agonistic activity (Emax): compared with dexamethasone, transfected HEK293T cells
Protocol: The compound of the present invention to be tested was formulated into a 1 mM solution with DMSO, and then subjected to 4-fold dilution at 10 concentration points using DMSO to obtain a 1000× mother liquor, with a final test concentration of 0.0000038-1 μM.
HEK293T cells (ATCC) were plated in a 100 mm culture dish at a density of 6*10^6 cells/culture dish, and cultured for 16 h under the conditions of 37° C. and 5% CO2. Plasmids (pGL4.35 [luc2P/9XGAL4 UAS/Hygro], p-Bind GR Vector, Promega) and Lipofectamine® 3000 (Invitrogen) were mixed, added into the culture dish, and then incubated for 5-6 h under the conditions of 37° C. and 5% CO2.
In a 384-well plate (PerkinElmer), 25 nL of the compound mother liquor was added, and then HEK293T cells transfected with plasmids were added at a density of 18000 cells/well (25 μL). The cells were incubated for 18-20 h under the conditions of 37° C. and 5% CO2.
After the incubation was ended, 25 μL of britelite plus luciferase assay reagent (PerkinElmer) was added, and then reading was performed using an Envision 2105 multimode reader (PerkinElmer).
The activity was calculated using the following formula, % activity=100*(signal of compound well−average signal of negative control well)/(average signal of positive control well−average signal of negative control well). […] Fitting calculation of EC50 was performed on % activity and the logarithmic concentration of the compound using Graphpad 8.0, Y=Bottom+(Top−Bottom)/(1+10^((Log EC50−X)*HillSlope)), wherein Y is % activity, and X is the logarithmic concentration of the compound.

Row | SMILES | EC50 [nM] | Emax [%] | maximum agonistic activity (Emax)
1 | C[C@]12C=CC(=O)C=C1[C@@H](F)C[C@H]1[C@@H]3CC[C@](OC(=O)c4cc(CO)co4)(C(=O)SCF)[C@@]3(C)C[C@H](O)[C@@]12F [F-10] | 0.6 | 150 | superior to dexamethasone
2 | CC(O)C(=O)O[C@]1(C(=O)SCF)[C@H](C)C[C@H]2[C@@H]3C[C@H](F)C4=CC(=O)C=C[C@]4(C)[C@@]3(F)[C@@H](O)C[C@@]21C (stereo partly drawn) [D-9] | 3.6 | 146 | superior to dexamethasone
3 | C[C@]12C=CC(=O)C=C1[C@@H](F)C[C@H]1[C@@H]3CC[C@](OC(=O)/C=C/c4ccc(F)c(N)c4)(C(=O)SCF)[C@@]3(C)C[C@H](O)[C@@]12F [E-4] | 1 | 84.8 | –
4 | C[C@@H]1C[C@H]2[C@@H]3C[C@H](F)C4=CC(=O)C=C[C@]4(C)[C@@]3(F)[C@@H](O)C[C@]2(C)[C@@]1(OC(=O)c1cc(CO)co1)C(=O)SCF [F-9, (6S,8S,9R,10S,11S,13S,14S,16R,17R)-6,9-difluoro-17-(((fluoromethyl)thio)carbonyl)-11-hydroxy-10,13,16-trimethyl-3-oxo-6,7,8,9,10,11,12,13,14,15,16,17-dodecahydro-3H-cyclopenta[a]phenanthren-17-yl 4-(hydroxymethyl)furan-2-carboxylate] | 0.4 | 134 | superior to dexamethasone
5 | C[C@@H]1C[C@H]2[C@@H]3C[C@H](F)C4=CC(=O)C=C[C@]4(C)[C@@]3(F)[C@@H](O)C[C@]2(C)[C@@]1(OC(=O)c1ccc(CO)cc1)C(=O)SCF [B-31, (6S,8S,9R,10S,11S,13S,14S,16R,17R)-6,9-difluoro-17-(((fluoromethyl)thio)carbonyl)-11-hydroxy-10,13,16-trimethyl-3-oxo-6,7,8,9,10,11,12,13,14,15,16,17-dodecahydro-3H-cyclopenta[a]phenanthren-17-yl 4-(hydroxymethyl)benzoate] | 0.32 | 92.5 | –
6 | C[C@@H]1C[C@H]2[C@@H]3C[C@H](F)C4=CC(=O)C=C[C@]4(C)[C@@]3(F)[C@@H](O)C[C@]2(C)[C@@]1(OC(=O)c1cccc(CO)c1)C(=O)SCF [B-35, (6S,8S,9R,10S,11S,13S,14S,16R,17R)-6,9-difluoro-17-(((fluoromethyl)thio)carbonyl)-11-hydroxy-10,13,16-trimethyl-3-oxo-6,7,8,9,10,11,12,13,14,15,16,17-dodecahydro-3H-cyclopenta[a]phenanthren-17-yl 3-(hydroxymethyl)benzoate] | 2.4 | 66.2 | –
7 | C[C@]12C=CC(=O)C=C1CC[C@H]1[C@@H]3CC[C@](OC(=O)c4ccc(F)c(N)c4)(C(=O)SCF)[C@@]3(C)C[C@H](O)[C@@]12F [A-2] | 1.7 | 93.7 | –
8 | C[C@@H]1C[C@H]2[C@@H]3C[C@H](F)C4=CC(=O)C=C[C@]4(C)[C@@]3(F)[C@@H](O)C[C@]2(C)[C@@]1(OC(=O)c1ccc(CO)o1)C(=O)SCF [F-13, (6S,8S,9R,10S,11S,13S,14S,16R,17R)-6,9-difluoro-17-(((fluoromethyl)thio)carbonyl)-11-hydroxy-10,13,16-trimethyl-3-oxo-6,7,8,9,10,11,12,13,14,15,16,17-dodecahydro-3H-cyclopenta[a]phenanthren-17-yl 5-(hydroxymethyl)furan-2-carboxylate] | 1.3 | 104 | –
9 | CC(O)CC(=O)O[C@]1(C(=O)SCF)[C@H](C)C[C@H]2[C@@H]3C[C@H](F)C4=CC(=O)C=C[C@]4(C)[C@@]3(F)[C@@H](O)C[C@@]21C (stereo partly drawn) [D-11] | 0.8 | 115 | superior to dexamethasone
